Measurements reported in US20090093423A2, “NOVEL 2-SUBSTITUTED METHYL PENAM DERIVATIVES” (Orchid Chemicals and Pharmaceuticals Limited, priority 2006, published 2009).

Key:
A. baumani MRO 14514 = experiment: MIC, Agar Dilution Method, resistant clinical isolate; format: cell-based; conditions: Pip + 4 μg/mL inhibitor
Description: (§1) The novel compounds were tested for the in vitro antibacterial activities by the Agar Dilution Method as specified in documents published by NCCLS, now CLSI, USA. (National Committee for Clinical Laboratory Standards (NCCLS). 2003. Approved standard M7-A6. NCCLS, Villanova, Pa.).
(§2) Tazo was also dissolved in same buffer to get a solution of, e.g., 1 mg/mL. Novel penam derivatives described herein were dissolved in water to get a solution of, e.g., 1 mg/mL.
(§3) The novel compounds and Tazo were also tested individually. The bacterial inoculum was prepared by picking 3 to 5 well-isolated bacterial colonies with the same morphological appearance from an 18-24 h old culture and adjusting the turbidity of the saline suspension to 0.5 McFarland Turbidity Standard equivalent to a bacterial population of 1.5×10^8 colony forming units (CFU) per mL of suspension. The suspension was diluted 1:10 in saline (i.e. 0.5 mL suspension+4.5 mL saline) to get a bacterial population of 1.5×10^7 CFU/mL as inoculum. […] The inoculated petridishes were incubated at 35° C. in an ambient atmosphere for 16-20 h.

A. baumani MRO 14512 = experiment: as above; format: cell-based; conditions: Pip + 4 μg/mL inhibitor
Description: as §1, §2, §3

A. baumani MRO 14515 = experiment: as above; format: cell-based; conditions: Pip + 4 μg/mL inhibitor
Description: as §1, §2, §3

E. coli MRO 10135 = experiment: as above; format: cell-based; conditions: Pip + 4 μg/mL inhibitor
Description: as §1, §2, §3

[1] = test system: ESBLs types SHV-3 and SHV-4; conditions: Bryson and Brogden, 1994; cited from earlier work
E. coli 10001 = experiment: MIC, Agar Dilution Method; format: cell-based; conditions: strain 10001 (uncharacterized-ESBL clinical strain); inhibitor 1 μg/mL
Description: as §1, §2, §3

E. cloacae 11802 = experiment: MIC, Agar Dilution Method; format: cell-based; conditions: inhibitor 1 μg/mL
Description: as §1, §2, §3

K. pneumoniae 11006 = experiment: MIC, Agar Dilution Method; format: cell-based; conditions: strain 11006 (uncharacterized-ESBL clinical strain); inhibitor 1 μg/mL
Description: as §1, §2, §3

[2] = test system: K. pneumoniae ATCC 700603; experiment: MIC, Agar Dilution Method; format: cell-based; conditions: for MIC of Piperacillin with different concentrations of Tazo or compound of Example 1: K. pneumoniae 700603, SHV-18
Description: as §1, §2, §3

E. cloacae 11801 = experiment: MIC, Agar Dilution Method; format: cell-based; conditions: inhibitor 1 μg/mL
Description: as §1, §2, §3

E. coli MRO 10006 = experiment: MIC, Agar Dilution Method; format: cell-based; conditions: strain 10006 (uncharacterized-ESBL clinical strain); inhibitor 1 μg/mL
Description: as §1, §2, §3

A. baumanii 14501 = experiment: MIC, Agar Dilution Method; format: cell-based; conditions: inhibitor 1 μg/mL
Description: as §1, §2, §3

M. morganii 13701 = experiment: MIC, Agar Dilution Method; format: cell-based; conditions: inhibitor 1 μg/mL
Description: as §1, §2, §3

C. sedlakii 12303 = experiment: MIC, Agar Dilution Method; format: cell-based; conditions: inhibitor 1 μg/mL
Description: as §1, §2, §3

[3] = test system: M. catarrhalis ATCC 43627; experiment: MIC, Agar Dilution Method; format: cell-based; conditions: inhibitor 1 μg/mL
Description: as §1, §2, §3

P. aeruginosa 15021 = experiment: MIC, Agar Dilution Method; format: cell-based; conditions: inhibitor 1 μg/mL
Description: as §1, §2, §3

[4] = test system: M. catarrhalis ATCC 43617; experiment: MIC, Agar Dilution Method; format: cell-based; conditions: inhibitor 1 μg/mL
Description: as §1, §2, §3

P. aeruginosa 15019 = experiment: MIC, Agar Dilution Method; format: cell-based; conditions: inhibitor 1 μg/mL
Description: as §1, §2, §3

K. pneumoniae MRO 11007 = experiment: MIC, Agar Dilution Method; format: cell-based; conditions: strain 11007 (uncharacterized-ESBL clinical strain); inhibitor 1 μg/mL
Description: as §1, §2, §3

E. coli MRO 10007 = experiment: MIC, Agar Dilution Method; format: cell-based; conditions: strain 10007 (uncharacterized-ESBL clinical strain); inhibitor 1 μg/mL
Description: as §1, §2, §3

K. pneumoniae 11009 = experiment: MIC, Agar Dilution Method; format: cell-based; conditions: strain 11009 (uncharacterized-ESBL clinical strain); inhibitor 1 μg/mL
Description: as §1, §2, §3

M. morganii 13702 = experiment: MIC, Agar Dilution Method; format: cell-based; conditions: inhibitor 1 μg/mL
Description: as §1, §2, §3

E. coli ATCC 25922 = experiment: MIC, Agar Dilution Method; format: cell-based; conditions: inhibitor 1 μg/mL
Description: as §1, §2, §3

S. odonifera 13801 = experiment: MIC, Agar Dilution Method; format: cell-based; conditions: inhibitor 1 μg/mL
Description: as §1, §2, §3

C. freundii 12301 = experiment: MIC, Agar Dilution Method; format: cell-based; conditions: inhibitor 1 μg/mL
Description: as §1, §2, §3

E. coli MRO 10002 = experiment: MIC, Agar Dilution Method; format: cell-based; conditions: strain 10002 (uncharacterized-ESBL clinical strain); inhibitor 1 μg/mL
Description: as §1, §2, §3

E. coli 10003 = experiment: MIC, Agar Dilution Method; format: cell-based; conditions: inhibitor 1 μg/mL
Description: as §1, §2, §3

P. aeruginosa ATCC 27853 = experiment: MIC, Agar Dilution Method; format: cell-based; conditions: inhibitor 1 μg/mL
Description: as §1, §2, §3

K. pneumoniae MRO 11008 = experiment: MIC, Agar Dilution Method; format: cell-based; conditions: strain 11008 (uncharacterized-ESBL clinical strain); inhibitor 1 μg/mL
Description: as §1, §2, §3

K. pneumoniae 11010 = experiment: MIC, Agar Dilution Method; format: cell-based; conditions: inhibitor 1 μg/mL
Description: as §1, §2, §3

E. coli 10004 = experiment: MIC, Agar Dilution Method; format: cell-based; conditions: inhibitor 1 μg/mL
Description: as §1, §2, §3

K. pneumoniae 11012 = experiment: MIC, Agar Dilution Method; format: cell-based; conditions: inhibitor 1 μg/mL
Description: as §1, §2, §3

P. aeruginosa 15020 = experiment: MIC, Agar Dilution Method; format: cell-based; conditions: inhibitor 1 μg/mL
Description: as §1, §2, §3

## C[C@]1(Cn2ccnn2)[C@H](C(=O)O)N2C(=O)C[C@H]2S1(=O)=O [Tazo]
A. baumani MRO 14514
  MIC of Piperacillin in combination with 4 μg/mL inhibitor: 64 µg/mL
A. baumani MRO 14512
  MIC of Piperacillin in combination with 4 μg/mL inhibitor: 64 µg/mL
A. baumani MRO 14515
  MIC of Piperacillin in combination with 4 μg/mL inhibitor: 128 µg/mL
E. coli MRO 10135
  MIC of Piperacillin in combination with 4 μg/mL inhibitor: >128 µg/mL
[1]
  activity against ESBLs types SHV-3 and SHV-4: inactive
E. coli 10001
  MIC of Piperacillin with Tazo or compounds described herein at 1 μg/mL: 16 µg/mL
E. cloacae 11802
  MIC of Piperacillin with Tazo or compounds described herein at 1 μg/mL: 64 µg/mL
K. pneumoniae 11006
  MIC of Piperacillin with Tazo or compounds described herein at 1 μg/mL: 32 µg/mL
[2]; inhibitor 1 μg/mL
  MIC of Piperacillin with different concentrations of Tazo or compound of Example 1: 16 µg/mL
[2]; inhibitor 2 μg/mL
  MIC of Piperacillin with different concentrations of Tazo or compound of Example 1: 16 µg/mL
[2]; inhibitor 4 μg/mL
  MIC of Piperacillin with different concentrations of Tazo or compound of Example 1: 16 µg/mL
[2]; K. pneumoniae ATCC 700603, inhibitor 1 μg/mL
  MIC of Piperacillin with Tazo or compounds described herein at 1 μg/mL: 16 µg/mL
E. cloacae 11801
  MIC of Piperacillin with Tazo or compounds described herein at 1 μg/mL: 2 µg/mL
E. coli MRO 10006
  MIC of Piperacillin with Tazo or compounds described herein at 1 μg/mL: 2 µg/mL
A. baumanii 14501
  MIC of Piperacillin with Tazo or compounds described herein at 1 μg/mL: 8 µg/mL
M. morganii 13701
  MIC of Piperacillin with Tazo or compounds described herein at 1 μg/mL: 16 µg/mL
C. sedlakii 12303
  MIC of Piperacillin with Tazo or compounds described herein at 1 μg/mL: 1 µg/mL
[3]
  MIC of Piperacillin with Tazo or compounds described herein at 1 μg/mL: <0.25 µg/mL
P. aeruginosa 15021
  MIC of Piperacillin with Tazo or compounds described herein at 1 μg/mL: 32 µg/mL
[4]
  MIC of Piperacillin with Tazo or compounds described herein at 1 μg/mL: <0.25 µg/mL
P. aeruginosa 15019
  MIC of Piperacillin with Tazo or compounds described herein at 1 μg/mL: 32 µg/mL
K. pneumoniae MRO 11007
  MIC of Piperacillin with Tazo or compounds described herein at 1 μg/mL: >128 µg/mL
E. coli MRO 10007
  MIC of Piperacillin with Tazo or compounds described herein at 1 μg/mL: 1 µg/mL
K. pneumoniae 11009
  MIC of Piperacillin with Tazo or compounds described herein at 1 μg/mL: 16 µg/mL
M. morganii 13702
  MIC of Piperacillin with Tazo or compounds described herein at 1 μg/mL: <0.25 µg/mL
E. coli ATCC 25922
  MIC of Piperacillin with Tazo or compounds described herein at 1 μg/mL: 2 µg/mL
S. odonifera 13801
  MIC of Piperacillin with Tazo or compounds described herein at 1 μg/mL: 2 µg/mL
C. freundii 12301
  MIC of Piperacillin with Tazo or compounds described herein at 1 μg/mL: 16 µg/mL
E. coli MRO 10002
  MIC of Piperacillin with Tazo or compounds described herein at 1 μg/mL: 128 µg/mL
E. coli 10003
  MIC of Piperacillin with Tazo or compounds described herein at 1 μg/mL: 32 µg/mL
P. aeruginosa ATCC 27853
  MIC of Piperacillin with Tazo or compounds described herein at 1 μg/mL: 4 µg/mL
K. pneumoniae MRO 11008
  MIC of Piperacillin with Tazo or compounds described herein at 1 μg/mL: >128 µg/mL
K. pneumoniae 11010
  MIC of Piperacillin with Tazo or compounds described herein at 1 μg/mL: 2 µg/mL
E. coli 10004
  MIC of Piperacillin with Tazo or compounds described herein at 1 μg/mL: 16 µg/mL
K. pneumoniae 11012
  MIC of Piperacillin with Tazo or compounds described herein at 1 μg/mL: 2 µg/mL
P. aeruginosa 15020
  MIC of Piperacillin with Tazo or compounds described herein at 1 μg/mL: 64 µg/mL
